Experimental data reported in ChEMBL document CHEMBL5665443, “Enzyme Inhibitor Single Concentration assay results for EUbOPEN Chemogenomics Library” (2024).

Columns and labels:
[1] = target: Methyl-CpG-binding domain protein 4 (Homo sapiens) (UniProt O95243); conditions: Hit No;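 further: MBD4 activity read as fluorescence at 594 nm from cleavage and release of a quenched duplex DNA oligonucleotide, with APE1 coupled to incise the strand and raise turnover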
[2] = target: T1, Adenine DNA glycosylase (Homo sapiens) (UniProt Q9UIF7); conditions: Hit No;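 further: human MUTYH activity read as 594 nm fluorescence from cleavage and release of a quenched DNA duplex, coupled with APE1 for strand incision, lower signal meaning inhibition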
T1 sequence (whole entry): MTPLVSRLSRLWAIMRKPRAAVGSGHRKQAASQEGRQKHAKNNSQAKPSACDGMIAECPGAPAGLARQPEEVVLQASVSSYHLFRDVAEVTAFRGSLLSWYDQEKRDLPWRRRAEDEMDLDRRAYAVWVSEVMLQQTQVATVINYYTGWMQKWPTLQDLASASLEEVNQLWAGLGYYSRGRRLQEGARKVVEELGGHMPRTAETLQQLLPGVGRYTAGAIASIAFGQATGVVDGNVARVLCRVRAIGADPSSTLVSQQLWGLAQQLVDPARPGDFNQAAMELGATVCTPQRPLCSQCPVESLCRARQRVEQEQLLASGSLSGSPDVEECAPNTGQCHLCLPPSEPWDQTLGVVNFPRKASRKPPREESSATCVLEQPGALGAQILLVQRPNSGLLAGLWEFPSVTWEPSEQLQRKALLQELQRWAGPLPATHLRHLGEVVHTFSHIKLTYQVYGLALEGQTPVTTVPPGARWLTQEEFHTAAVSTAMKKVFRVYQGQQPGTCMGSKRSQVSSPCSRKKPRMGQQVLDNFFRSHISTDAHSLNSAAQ

[3] = target: Endonuclease 8-like 1 (Homo sapiens) (UniProt Q96FI4); conditions: Hit No;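 further: fluorescence at 594 nm from quenched duplex DNA oligonucleotides released by NEIL1 cleavage and strand separation, reported as reduction of this enzyme activity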
[4] = target: T2, Endonuclease 8-like 2 (Homo sapiens) (UniProt Q969S2);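 further: fluorescence at 594 nm reports NEIL2 cutting and release of a quenched double-stranded DNA oligo substrate, reduced signal read as inhibition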
T2 sequence (whole entry): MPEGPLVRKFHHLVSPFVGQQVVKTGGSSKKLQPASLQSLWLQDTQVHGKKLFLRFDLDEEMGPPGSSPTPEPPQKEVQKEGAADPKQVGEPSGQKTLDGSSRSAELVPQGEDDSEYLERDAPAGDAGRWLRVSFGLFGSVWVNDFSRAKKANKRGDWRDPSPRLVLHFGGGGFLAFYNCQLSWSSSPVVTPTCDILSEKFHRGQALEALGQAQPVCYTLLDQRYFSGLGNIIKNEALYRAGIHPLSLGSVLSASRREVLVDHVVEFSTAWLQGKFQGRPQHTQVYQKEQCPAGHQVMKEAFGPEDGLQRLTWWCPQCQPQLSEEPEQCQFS

[5] = target: T3, Endonuclease III-like protein 1 (Homo sapiens) (UniProt P78549); conditions: Hit No;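 further: enzyme assay tracking NTHL1 cutting and release of a quenched double-stranded DNA oligo substrate, read as fluorescence at 594 nm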
T3 sequence (whole entry): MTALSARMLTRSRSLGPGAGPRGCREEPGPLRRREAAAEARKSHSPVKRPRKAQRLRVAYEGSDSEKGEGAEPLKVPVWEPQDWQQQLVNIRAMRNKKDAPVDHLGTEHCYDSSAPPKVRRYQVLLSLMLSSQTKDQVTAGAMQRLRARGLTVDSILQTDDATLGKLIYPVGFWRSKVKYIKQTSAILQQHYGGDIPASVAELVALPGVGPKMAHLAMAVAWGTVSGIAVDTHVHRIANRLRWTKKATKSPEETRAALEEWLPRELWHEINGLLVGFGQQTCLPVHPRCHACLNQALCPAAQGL

[6] = target: N-glycosylase/DNA lyase (Homo sapiens) (UniProt O15527);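 further: OGG1 cleavage of a quenched duplex DNA oligonucleotide, coupled to APE1 for strand incision, read as fluorescence at 594 nm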
[7] = target: T4, Single-strand selective monofunctional uracil DNA glycosylase (Homo sapiens) (UniProt Q53HV7); conditions: Hit No;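 further: enzymatic SMUG1 assay coupled with APE1, reading fluorescence at 594 nm released when a quenched double-stranded DNA oligonucleotide substrate is cleaved and separated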
T4 sequence (whole entry): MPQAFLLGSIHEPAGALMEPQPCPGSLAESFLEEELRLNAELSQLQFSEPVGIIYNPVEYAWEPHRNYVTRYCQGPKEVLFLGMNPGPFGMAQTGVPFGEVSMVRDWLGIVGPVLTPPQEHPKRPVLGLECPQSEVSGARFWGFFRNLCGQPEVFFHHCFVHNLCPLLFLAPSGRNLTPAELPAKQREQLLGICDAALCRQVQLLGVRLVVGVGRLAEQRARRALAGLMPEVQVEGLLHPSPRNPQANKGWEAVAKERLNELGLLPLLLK

[8] = target: G/T mismatch-specific thymine DNA glycosylase (Homo sapiens) (UniProt Q13569); conditions: Hit No;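 further: human TDG cleavage of quenched duplex DNA oligonucleotides coupled to APE1, strand release read as fluorescence at 594 nm, inhibition of TDG activity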
[9] = target: Uracil-DNA glycosylase (Homo sapiens) (UniProt P13051); conditions: Hit No;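 further: UNG excision on a quenched double-stranded DNA oligo probe, with APE1 added for strand incision and turnover, read as fluorescence at 594 nm as strands separate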
[10] = Compound Concentration 10.0 uM, Hit No
[11] = Compound Concentration 1.0 uM, Hit No
[12] = Compound Concentration 10.0 uM, Hit Yes

Sequence of Uracil-DNA glycosylase (Homo sapiens) (P13051 whole entry): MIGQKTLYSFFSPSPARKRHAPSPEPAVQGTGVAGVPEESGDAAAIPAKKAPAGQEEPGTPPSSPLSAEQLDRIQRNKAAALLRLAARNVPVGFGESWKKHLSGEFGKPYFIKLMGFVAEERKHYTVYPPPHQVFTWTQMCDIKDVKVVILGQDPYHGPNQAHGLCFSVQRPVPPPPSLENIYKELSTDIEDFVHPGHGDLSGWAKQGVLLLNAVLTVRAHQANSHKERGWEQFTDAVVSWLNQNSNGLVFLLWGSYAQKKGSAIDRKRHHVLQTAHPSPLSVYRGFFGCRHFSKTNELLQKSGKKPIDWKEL
Sequence of Endonuclease 8-like 1 (Homo sapiens) (Q96FI4 whole entry): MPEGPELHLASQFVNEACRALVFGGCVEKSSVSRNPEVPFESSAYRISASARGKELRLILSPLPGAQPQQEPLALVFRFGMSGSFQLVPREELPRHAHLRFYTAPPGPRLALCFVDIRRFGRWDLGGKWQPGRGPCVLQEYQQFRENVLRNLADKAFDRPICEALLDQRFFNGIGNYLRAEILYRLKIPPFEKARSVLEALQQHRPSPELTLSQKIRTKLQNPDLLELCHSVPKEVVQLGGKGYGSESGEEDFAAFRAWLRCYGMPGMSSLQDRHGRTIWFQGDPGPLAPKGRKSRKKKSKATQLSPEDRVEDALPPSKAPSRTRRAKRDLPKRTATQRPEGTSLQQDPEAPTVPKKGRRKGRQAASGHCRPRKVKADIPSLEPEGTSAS
Sequence of N-glycosylase/DNA lyase (Homo sapiens) (O15527 whole entry): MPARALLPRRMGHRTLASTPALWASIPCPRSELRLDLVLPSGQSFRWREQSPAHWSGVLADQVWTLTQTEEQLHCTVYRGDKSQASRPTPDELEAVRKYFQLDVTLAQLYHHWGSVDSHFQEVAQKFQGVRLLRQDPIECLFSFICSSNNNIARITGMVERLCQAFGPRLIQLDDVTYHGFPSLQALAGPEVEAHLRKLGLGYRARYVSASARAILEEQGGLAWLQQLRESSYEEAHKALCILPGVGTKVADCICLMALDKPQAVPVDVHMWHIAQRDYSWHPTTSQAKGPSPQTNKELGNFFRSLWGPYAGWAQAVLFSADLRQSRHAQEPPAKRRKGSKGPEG
Sequence of G/T mismatch-specific thymine DNA glycosylase (Homo sapiens) (Q13569 whole entry): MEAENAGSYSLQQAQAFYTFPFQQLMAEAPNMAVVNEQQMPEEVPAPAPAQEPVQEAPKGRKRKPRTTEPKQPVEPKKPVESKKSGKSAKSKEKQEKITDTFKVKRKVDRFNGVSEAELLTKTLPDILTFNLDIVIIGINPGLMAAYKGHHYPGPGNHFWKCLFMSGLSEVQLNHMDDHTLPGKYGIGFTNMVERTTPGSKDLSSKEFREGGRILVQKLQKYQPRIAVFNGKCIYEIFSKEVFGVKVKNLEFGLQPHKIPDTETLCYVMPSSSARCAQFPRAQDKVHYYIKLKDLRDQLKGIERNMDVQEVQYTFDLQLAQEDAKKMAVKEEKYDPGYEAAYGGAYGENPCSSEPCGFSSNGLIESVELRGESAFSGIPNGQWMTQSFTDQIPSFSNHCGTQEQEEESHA
Sequence of Methyl-CpG-binding domain protein 4 (Homo sapiens) (O95243 whole entry, the tested form may be a part): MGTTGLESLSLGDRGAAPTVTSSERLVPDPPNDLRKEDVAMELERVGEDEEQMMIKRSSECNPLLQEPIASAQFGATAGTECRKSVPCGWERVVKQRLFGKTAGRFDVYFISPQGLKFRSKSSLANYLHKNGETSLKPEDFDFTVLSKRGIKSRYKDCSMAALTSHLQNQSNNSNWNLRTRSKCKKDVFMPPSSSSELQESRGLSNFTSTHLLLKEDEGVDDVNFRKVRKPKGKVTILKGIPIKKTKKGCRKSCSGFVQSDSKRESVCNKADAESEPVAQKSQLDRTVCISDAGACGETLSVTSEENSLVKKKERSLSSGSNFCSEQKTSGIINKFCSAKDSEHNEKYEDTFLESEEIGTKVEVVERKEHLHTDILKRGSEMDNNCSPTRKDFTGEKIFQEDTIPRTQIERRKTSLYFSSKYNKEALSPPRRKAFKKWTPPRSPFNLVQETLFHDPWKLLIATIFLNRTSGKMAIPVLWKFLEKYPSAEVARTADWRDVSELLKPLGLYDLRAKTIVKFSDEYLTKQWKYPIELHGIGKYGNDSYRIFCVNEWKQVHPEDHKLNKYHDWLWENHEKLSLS

Row | Structure (SMILES) | inhibition ([1]; Compound Concentration 10.0 uM) [%] | inhibition ([2]; Compound Concentration 10.0 uM) [%] | inhibition ([3]; Compound Concentration 10.0 uM) [%] | inhibition [4, 10] [%] | inhibition ([5]; Compound Concentration 10.0 uM) [%] | inhibition [6, 10] [%] | inhibition ([7]; Compound Concentration 10.0 uM) [%] | inhibition ([8]; Compound Concentration 10.0 uM) [%] | inhibition ([9]; Compound Concentration 10.0 uM) [%] | inhibition ([1]; Compound Concentration 1.0 uM) [%] | inhibition ([2]; Compound Concentration 1.0 uM) [%] | inhibition ([3]; Compound Concentration 1.0 uM) [%] | inhibition [4, 11] [%] | inhibition ([5]; Compound Concentration 1.0 uM) [%] | inhibition [6, 11] [%] | inhibition ([7]; Compound Concentration 1.0 uM) [%] | inhibition ([8]; Compound Concentration 1.0 uM) [%] | inhibition ([9]; Compound Concentration 1.0 uM) [%] | inhibition [6, 12] [%] | inhibition [4, 12] [%]
1 | CCCCN(Cc1ccccc1)C(=O)c1ccc(S(=O)(=O)Nc2ccccc2)cc1 | -4.89 | 28.5 | -9.37 | -10 | 2.88 | 15.6 | 26.3 | 61.1 | 2.05 | – | – | – | – | – | – | – | – | – | – | –
2 | CN(C(=O)c1cnn2cccnc12)c1cc2c(cc1N1CCOCC1)C(=O)N(C[C@@H](F)C(C)(C)O)C2 | 23.6 | 2.33 | 6.13 | -1.57 | -9.94 | -1.31 | 9.25 | 39.8 | 0.621 | – | – | – | – | – | – | – | – | – | – | –
3 | CN(CCOc1ccc(C[C@H](Nc2ccccc2C(=O)c2ccccc2)C(=O)O)cc1)c1ccccn1 | 67 | -3.55 | 5.16 | 4.36 | -4.57 | 24.7 | 8.44 | 30.8 | -0.00636 | – | – | – | – | – | – | – | – | – | – | –
4 | Cc1ccc(C(=O)Nc2cccc(C(F)(F)F)c2)cc1Nc1nc(-c2cccnc2)nc2c1cnn2C | – | – | – | – | – | – | – | – | – | 14.1 | 7.35 | 6.48 | 3.74 | 0.785 | 5.38 | 23.8 | 48.5 | 6.36 | – | –
5 | CCO[C@H](COc1ccc(C(F)(F)F)cc1)CSc1ccc(OCC(=O)O)c(C)c1 | 71.4 | 16.2 | -4.99 | 3.59 | -4.57 | 20.8 | 20.8 | 59.2 | 6.42 | – | – | – | – | – | – | – | – | – | – | –
6 | CC(C)S(=O)(=O)c1ccc2nccc(Nc3ccc4scnc4c3)c2c1 | 9.41 | 18.3 | -7.92 | 1.58 | 9.85 | 12 | 32.3 | 49.5 | 8 | – | – | – | – | – | – | – | – | – | – | –
7 | O=C(NOCC1CC1)c1ccc(F)c(F)c1Nc1ccc(I)cc1Cl | – | – | – | – | – | – | – | – | – | 41.9 | 4.86 | -9.77 | -7.84 | 15.4 | 1.82 | 8.89 | 57 | -3 | – | –
8 | CC(C)c1onc(-c2c(Cl)cccc2Cl)c1COc1ccc(/C=C/c2cccc(C(=O)O)c2)c(Cl)c1 | 58.8 | 0.66 | -5.29 | -6.36 | 12.5 | – | 19.5 | 100 | 4.8 | – | – | – | – | – | – | – | – | – | 103 | –
9 | CC1=C(C#N)C(c2ccc3c(c2)c(NC(=O)c2ccccc2C)nn3C)C(C#N)=C(C)N1 | 65.1 | 15.1 | -2.11 | 0.0213 | -3.26 | 7.85 | 24.1 | 58.9 | 6.97 | – | -2.97 | 1.19 | – | 2.88 | – | 16.1 | 29.4 | 1.91 | – | –
10 | COc1cc2nc(N3CCN(C(=O)COc4c(OC)cccc4C(C)C)CC3)nc(N)c2cc1OC | -7.62 | -1.51 | 10.1 | – | 17.9 | -9.97 | -5.21 | 4.22 | 3.87 | – | – | – | – | – | – | – | – | – | – | 50.6
11 | CC1(C)CCC(C)(C)c2cc(C(=O)Nc3ccc(C(=O)O)cc3)ccc21 | 58.8 | 14.4 | -3.17 | -6.36 | 2.66 | 27.8 | 16.9 | 100 | 5.57 | – | – | – | – | – | – | – | – | – | – | –
12 | CN1CCN(C(=O)c2ccc3cc2OCCOCCNc2ccn4ncc-3c4n2)CC1 | 17.6 | -5.82 | 1.85 | -5.69 | -5.49 | 2.08 | 13.6 | 38.5 | 1.81 | – | – | – | – | – | – | – | – | – | – | –
13 | Nc1ncc2c(n1)-c1c([nH]c3ccc(C4CC4)cc13)CCCC2 | – | – | – | – | – | – | – | – | – | 4.16 | -1.15 | 2.52 | 0.505 | 2.18 | 3.08 | 19.5 | 29.2 | 3.77 | – | –
14 | O=C(O)C1CN(Cc2ccc(OCc3ccc(Cl)c(Cl)c3)cc2)C1 | 25 | 19.2 | 5.13 | -3.23 | 10.7 | -0.266 | 12.8 | 18.1 | -2.44 | – | – | – | – | – | – | – | – | – | – | –
15 | CCC[C@@H]1CNCc2c1[nH]c(=O)c(C#N)c2N1CCC2(CC1)CC2 | 65.3 | 7.93 | -1.35 | -5.59 | -9.18 | 27.9 | 17.4 | 98.8 | 2.58 | – | – | – | – | – | – | – | – | – | – | –
16 | O=C(O)c1ccc2c(c1)nc(Nc1cccc(Cl)c1)c1ccncc12 | -3.96 | 11.4 | -4.62 | -9.73 | 2.18 | 6.06 | 17.2 | 97.5 | -6.1 | – | – | – | – | – | – | – | – | – | – | –
17 | C[C@@H]1CN(c2cc(-c3nn(C)c4ccc(OC5(C)CC5)cc34)ncn2)C[C@H](C)O1 | 67.5 | -0.542 | 4.71 | 1.04 | -7.86 | – | 15.6 | 63 | 4.62 | 101 | -9.65 | -5.67 | -5.15 | – | 11.8 | 3.32 | 34.4 | -5.93 | – | –
18 | CS(=O)(=O)N1CCCC(NC(=O)[C@H](CCC2CCCCC2)NC(=O)c2ccc(CNC(=O)c3cnc4ccccn34)cc2)C1 (some centres not stated) | – | – | – | – | – | – | – | – | – | 27.9 | -1.13 | -0.0491 | -2.03 | 7.17 | -1.52 | 10.6 | 41.5 | 0.321 | – | –
19 | O=C(N[C@@H]1C2CCN(CC2)[C@H]1Cc1cccnc1)c1cc2ccccc2o1 | -7.25 | -1.82 | 5.2 | 1.94 | 27.8 | -7.23 | -7.47 | -0.849 | -1.31 | – | – | – | – | – | – | – | – | – | – | –
20 | CNC(=O)c1cc(C(=O)N[C@H]2[C@@H]3COC[C@@H]32)cc2c1O[C@@H](CF)[C@@H]2c1ccccc1 | 54.8 | -6.61 | 6.68 | 8.44 | -3.92 | 6.72 | 8.28 | 52.5 | 4.27 | – | – | – | – | – | – | – | – | – | – | –
21 | CCOP(=O)(OCC)C(=Cc1cc(C(C)(C)C)c(O)c(C(C)(C)C)c1)P(=O)(OCC)OCC | 49.5 | 14.5 | -3.17 | 11.2 | 12.5 | -1.84 | 3.52 | 58.6 | -4.58 | – | – | – | – | – | – | – | – | – | – | –
